In article PMC11303563 (Communications Medicine, 2024):
Values joined by “and” are separate entries in the source; they are usually repeats but may differ in a detail not shown here. Identical values can stand only once.

How the values were obtained:
[1] = test system: high-fat diet (HFD)-induced obesity model mice; assay: Body weight of high-fat diet-induced obesity model mice; type: in vivo, C57BL/6J mice; set-up: Body weight, Mean Diff. ND vs. treated: unit not given here; details: for Body weight, 95.00% CI of diff. ND vs. treated / Body weight, Mean Diff. ND vs. treated: ND group as comparator; for Body weight, 95.00% CI of diff. ND vs. treated / Body weight, Mean Diff. ND vs. treated / Body weight, 95.00% CI of diff. Vehicle vs. treated / Body weight, Mean Diff. Vehicle vs. treated: Tukey's multiple comparisons test; for Body weight, Mean Diff. Vehicle vs. treated / Body weight, group mean (Fig. 3a) / Body weight, individual mice (Fig. 3a): in g (unit assumed); for Body weight, group mean (Fig. 3a) / Body weight, individual mice (Fig. 3a) / decrease of body weight compared to vehicle: HFD mice; for Body weight, group mean (Fig. 3a): n 10; for decrease of body weight compared to vehicle: 3 weeks
Method: The injection was given 6 h after light on. Food consumption and body weights were measured weekly. Food and water were provided to the animals ad libitum. The animals were treated according to the guidelines of Nagoya University, and all experimental procedures were approved by the Animal Experiment Committee of Nagoya University (A210715-003).
(§1) Epididymal adipose tissue was weighed.
(§2) Fig. 3 Effects of intraperitoneal injection of TH analogs on body weight and deposition of visceral fat. […] After three weeks of injection, body weight (a), and weight of the epididymal adipose tissue (b) were measured.

[2] = test system: high-fat diet (HFD)-induced obesity model mice; assay: Weight of epididymal adipose tissue (visceral fat) in HFD mice; type: in vivo, C57BL/6J mice; details: for Fig. 3b (weight of epididymal adipose tissue), group mean (Mean 2): n=10; for Fig. 3b (weight of epididymal adipose tissue), group mean (Mean 2) / Fig. 3b (weight of epididymal adipose tissue), Mean Diff. ND vs. treatment (Tukey) / Fig. 3b (weight of epididymal adipose tissue), Mean Diff. Vehicle vs. treatment (Tukey) / Epididymal adipose weight, individual mice (Fig. 3b): in mg (unit assumed); for Fig. 3b (weight of epididymal adipose tissue), Mean Diff. ND vs. treatment (Tukey): ND minus treated; for Fig. 3b (weight of epididymal adipose tissue), Mean Diff. Vehicle vs. treatment (Tukey): Vehicle minus treated
Method: as §1, §2

[3] = test system: high-fat diet (HFD)-induced obesity model mice; assay: Serum lipid analysis (total cholesterol, triglycerides) in HFD mice; type: in vivo, C57BL/6J mice; set-up: Serum TC (Fig. 4a), individual mouse values / Serum TG (Fig. 4b), individual mouse values / Serum TC (Fig. 4a), Mean Diff. ND vs. treatment (Tukey) / Serum TC (Fig. 4a), Mean Diff. Vehicle vs. treatment (Tukey) / Serum TC (Fig. 4a), group mean (Mean 2) / Mean Diff., ND vs. treated (Fig. 4b) / Mean Diff., Vehicle vs. treated (Fig. 4b) / Mean (Fig. 4b): unit not given here; details: for Serum TC (Fig. 4a), group mean (Mean 2) / Mean (Fig. 4b): n=10; for Serum TC (Fig. 4a), Mean Diff. ND vs. treatment (Tukey): ND minus treated; for Serum TC (Fig. 4a), Mean Diff. Vehicle vs. treatment (Tukey): Vehicle minus treated; for Mean Diff., ND vs. treated (Fig. 4b) / Mean Diff., Vehicle vs. treated (Fig. 4b): Tukey's multiple comparisons test; for Mean (Fig. 4b): group mean
Method: Fig. 4 Effects of TH analogs on the accumulation of lipids in mice. […] After 3 weeks of injection, serum and liver tissues were collected, and the amount of serum cholesterol (a), serum triglycerides (b), liver cholesterol (c), liver triglycerides (d), and liver total lipids (e) were measured.

[4] = In vitro blood-brain barrier permeability assay (BBB kit RBT-24H); type: in vitro ADME, rat
Method: Therefore, we tested BBB transparency in vitro using the BBB kit RBT-24H (PharmaCo-Cell)[35]. […] Blood-brain barrier permeability assay The blood-brain barrier (BBB) transparency of TH analogs was assessed in vitro using RBT-24H (PharmaCo-Cell)[5] according to the manufacturer 's protocol. […] After 30 min, the assay buffer in the wells mimicking the abluminal side was collected, and the concentration of the compounds was measured using liquid chromatography-mass spectrometry (LC-MS). […] These tips were preconditioned with 20 μL of acetonitrile and 20 μL of 0.1% TFA in purified water. 100 μL of the samples were loaded onto the preconditioned tips, washed with 200 μL of DW, and then eluted with 10 μL of acetonitrile. Triazine (1% vol/vol) was added to the eluent as an internal standard. […] 3 μm; Imtakt, Kyoto, Japan). All the experiments were performed using an Ultimate 3000 UHPLC system coupled with a Q Exactive Plus Orbitrap mass spectrometer (Thermo Fisher Scientific). […] Data were shown as mean ± standard deviation (n=3).

[5] = test system: THR-regulated genes and lipid metabolism-related genes in the liver
THRα = details: cited from earlier work
[6] = HFD mice, 1 μmol/kg day, RT-qPCR, reference gene Rps18
[7] = liver gene expression, 1µmol dose group vs. Vehicle

SMILES: Cc1cc(OCC(=O)O)cc(C)c1Cc1ccc(O)c(C(C)C)c1 [GC-1]
- Body weight, 95.00% CI of diff. ND vs. treated ([1]; 0.1 µmol dose group): -9.046 to -0.3347
- Body weight, Mean Diff. ND vs. treated ([1]; 0.1 µmol dose group): -4.69
- Body weight, 95.00% CI of diff. Vehicle vs. treated ([1]; 0.1 µmol dose group): 5.485 to 13.92
- Body weight, Mean Diff. Vehicle vs. treated ([1]; 0.1 µmol dose group): 9.704
- Body weight, 95.00% CI of diff. ND vs. treated ([1]; 1 µmol dose group): -9.111 to -0.3997
- Body weight, Mean Diff. ND vs. treated ([1]; 1 µmol dose group): -4.755
- Body weight, 95.00% CI of diff. Vehicle vs. treated ([1]; 1 µmol dose group): 5.420 to 13.86
- Body weight, Mean Diff. Vehicle vs. treated ([1]; 1 µmol dose group): 9.639
- Body weight, group mean (Fig. 3a) ([1]; 0.1 µmol dose group): 33.21
- Body weight, individual mice (Fig. 3a) ([1]; 0.1 µmol dose group): 29.83 and 31.33 and 29.67 and 36.57 and 36.31 and 35.71 and 35.26 and 34.18 and 33.67 and 29.56
- Body weight, group mean (Fig. 3a) ([1]; 1 µmol dose group): 33.27
- Body weight, individual mice (Fig. 3a) ([1]; 1 µmol dose group): 32.13 and 30.51 and 31.76 and 34.15 and 34.95 and 32.95 and 36.28 and 31.91 and 35.57 and 32.53
- decrease of body weight compared to vehicle ([1]; i.p. 0.1 µmol/kg day): ~ 20%
- decrease of body weight compared to vehicle ([1]; i.p. 1 µmol/kg day): ~ 20%
- Fig. 3b (weight of epididymal adipose tissue), group mean (Mean 2) ([2]; 0.1 µmol, HFD mice): 1486
- Fig. 3b (weight of epididymal adipose tissue), Mean Diff. ND vs. treatment (Tukey) ([2]; 0.1 µmol): -802.3
- Fig. 3b (weight of epididymal adipose tissue), Mean Diff. Vehicle vs. treatment (Tukey) ([2]; 0.1 µmol): 1372
- Fig. 3b (weight of epididymal adipose tissue), group mean (Mean 2) ([2]; 1 µmol, HFD mice): 1093
- Fig. 3b (weight of epididymal adipose tissue), Mean Diff. ND vs. treatment (Tukey) ([2]; 1 µmol): -410.1
- Fig. 3b (weight of epididymal adipose tissue), Mean Diff. Vehicle vs. treatment (Tukey) ([2]; 1 µmol): 1765
- Epididymal adipose weight, individual mice (Fig. 3b) ([2]; HFD mice, 0.1 µmol dose group): 1120.1 and 1287.3 and 1051.5 and 1562.9 and 1102.8 and 1733.2 and 1866.1 and 1900.9 and 1746.2 and 1485.7
- Epididymal adipose weight, individual mice (Fig. 3b) ([2]; HFD mice, 1 µmol dose group): 1157.5 and 882.3 and 1400.3 and 1216.9 and 1046.3 and 975.7 and 1192.5 and 1112.9 and 1063.5 and 886.8
- weight of the epididymal adipose tissue vs vehicle ([2]; HFD mice, i.p., dose not given (0.1 or 1 µmol/kg day), 3 weeks): decreased significantly
- Serum TC (Fig. 4a), individual mouse values ([3]; 0.1 µmol, HFD mice): 76.25 and 108.417 and 114.042 and 114.792 and 113.958 and 112.208 and 91.25 and 101.875 and 101.042 and 98.458
- Serum TG (Fig. 4b), individual mouse values ([3]; 0.1 µmol, HFD mice): 47.583 and 67.583 and 60.917 and 64.75 and 51.417 and 64.25 and 45.083 and 40.917 and 120.083
- Serum TC (Fig. 4a), group mean (Mean 2) ([3]; 0.1 µmol, HFD mice): 103.2
- Serum TC (Fig. 4a), Mean Diff. ND vs. treatment (Tukey) ([3]; 0.1 µmol): 76.19
- Serum TC (Fig. 4a), Mean Diff. Vehicle vs. treatment (Tukey) ([3]; 0.1 µmol): 146.8
- Serum TC (Fig. 4a), individual mouse values ([3]; 1 µmol, HFD mice): 114.667 and 103 and 123.208 and 101.042 and 100.208 and 100.542 and 101.667 and 117.708 and 116.875 and 87.208
- Serum TG (Fig. 4b), individual mouse values ([3]; 1 µmol, HFD mice): 89.25 and 100.917 and 117.583 and 93.417 and 90.917 and 81.75 and 125.917 and 105.083 and 72.583 and 61.75
- Serum TC (Fig. 4a), group mean (Mean 2) ([3]; 1 µmol, HFD mice): 106.6
- Serum TC (Fig. 4a), Mean Diff. ND vs. treatment (Tukey) ([3]; 1 µmol): 72.81
- Serum TC (Fig. 4a), Mean Diff. Vehicle vs. treatment (Tukey) ([3]; 1 µmol): 143.5
- Mean Diff., ND vs. treated (Fig. 4b) ([3]; ND minus 0.1 µmol group): 84.09
- Mean Diff., ND vs. treated (Fig. 4b) ([3]; ND minus 1 µmol group): 52.85
- Mean Diff., Vehicle vs. treated (Fig. 4b) ([3]; Vehicle minus 0.1 µmol group): 53.09
- Mean Diff., Vehicle vs. treated (Fig. 4b) ([3]; Vehicle minus 1 µmol group): 21.86
- Mean (Fig. 4b) ([3]; 0.1 µmol, HFD mice): 62.68
- Mean (Fig. 4b) ([3]; 1 µmol, HFD mice): 93.92
- serum triglyceride level vs vehicle ([3]; HFD mice, i.p. 0.1 µmol/kg day, 3 weeks): decreased
- Abluminal concentration ([4]; 10 µM on luminal side, 30 min, mean ± standard deviation (n=3)): 0.0966 ± 0.0234 µM
- Papp at 30 min, 10 µM ([4]; rat, 10 μM on luminal side, read-out: apparent permeability (Papp)): 14.6 ± 3.54 ×10⁻⁶ cm/s
- Dio1 expression in the liver, individual animal values ([5]; 1µmol, one value per animal): 3.829 and 3.919 and 5.168 and 4.354 and 3.692 and 2.159 and 3.566 and 3.314 and 5.1441 and 5.131
- Ldlr expression in the liver, individual animal values ([5]; 1µmol, one value per animal): 1.223 and 2.2 and 0.6334 and 0.7002 and 0.6702 and 3.257 and 0.3372 and 1.534 and 1.675
- Me1 expression in the liver, individual animal values ([5]; 1µmol, one value per animal): 1.623 and 3.346 and 4.729 and 3.444 and 1.386 and 2.548 and 5.3983 and 2.089 and 4.684 and 5.253
- Pnpla2 expression in the liver, individual animal values ([5]; 1µmol, one value per animal): 2.545 and 1.795 and 3.166 and 2.343 and 2.009 and 2.4714 and 3.073 and 2.97 and 1.253 and 2.348
- Srebp1c expression in the liver, individual animal values ([5]; 1µmol, one value per animal): 0.08164 and 0.06602 and 0.1318 and 0.09978 and 0.1458 and 0.0919 and 0.4057 and 0.2719 and 0.0552 and 0.07309
- Thrsp expression in the liver, individual animal values ([5]; 1µmol, one value per animal): 1.4847 and 1.604 and 3.066 and 1.407 and 2.579 and 0.6637 and 2.019 and 1.066 and 1.315 and 1.484
- liver expression of Dio1 vs vehicle [5, 6]: significantly upregulated
- liver expression of Ldlr vs vehicle [5, 6]: not significantly different
- liver expression of Me1 vs vehicle [5, 6]: significantly upregulated
- liver expression of Pnpla2 vs vehicle [5, 6]: significantly higher
- liver expression of Srebp1c vs vehicle [5, 6]: significantly lower
- liver expression of Thrsp vs vehicle [5, 6]: increased
- Pnpla2, Dunn's multiple comparisons test, Mean rank diff. (Vehicle vs. compound) [5, 7]: -16.8
- Srebp1c, Dunn's multiple comparisons test, Mean rank diff. (Vehicle vs. compound) [5, 7]: 22.27
- Pnpla2, Mean rank of treatment group (Mean rank 2) ([5]; liver gene expression, 1µmol dose group, Vehicle mean rank 8): 24.8
- Srebp1c, Mean rank of treatment group (Mean rank 2) ([5]; liver gene expression, 1µmol dose group, Vehicle mean rank […]): 11.4
- lower affinity for THRα than T3 (THRα): 10 fold
